Reference: patent publication US9585862B2, “Patch containing rivastigmine” (priority 2011, dated 2017)

Test: Compatibility test of adhesives mixed with rivastigmine free base (appearance, miscibility, total impurity)
Assay type: physicochemical
Description: In order to adopt a suitable adhesive for preparing a rivastigmine patch, each of various adhesives was mixed with rivastigmine free base to confirm the appearance, miscibility and compatibility thereof.
For a compatibility test, ten adhesives were used as a candidate material, considering the kind of a polymer and functional group present in the composition of each adhesive, the presence of a crosslinker and a solvent present in the composition. Details of the ten adhesives are shown in Table 2, wherein each product listed under the column “Product name” is an adhesive sold under the respective listed trademark.
Specifically, adhesives containing an acryl- or acrylate-vinylate-based polymer and having no functional group or a hydroxyl or carboxyl group were used. Also, the presence of a crosslinker in the adhesives was evaluated as an important factor to show a compatibility difference. The appearance and miscibility of each adhesive are shown in Table 3, wherein each “Durotak” listed under the column “Ingredient” is a different adhesive sold under the respective trademark.
For example, in the case that the adhesive sold under the trademark DUROTAK 87-202A was used, the color changed to yellow, while in the cases that the adhesives sold under the trademarks DUROTAK 87-2852, 87-2516 and 87-2052 were used, the color changed to brown. The adhesives undergoing a significant color change were commonly confirmed to have a crosslinker.

For `CCN(C)C(=O)Oc1cccc([C@H](C)N(C)C)c1` [Rivastigmine base, (S)-N-ethyl-3-[(1-dimethylamino)ethyl]-N-methyl-phenyl-carbamate], the “Miscibility 2 wks” value (active ingredient with adhesive, 2 wks) was “◯”, the “Miscibility Initial” value (active ingredient with adhesive, initial) was “◯” and the “Total impurity (% impurity) 2 wks” value (rivastigmine base alone or mixed with adhesive, 2 wks) was 0.07%. For the same compound, the “Total impurity (% impurity) Initial” value (rivastigmine base alone or mixed with adhesive, initial) was 0.03%.
